Reference: patent US9862713B2, “Substituted bicyclic heteroaryl compounds as RXR agonists” (CONNEXIOS LIFE SCIENCES PVT. LTD., priority 2014, dated 2018)

How the values were obtained:
[1] = tested on: HL-60 promyelocytic leukemia cell line; test: HL-60 differentiation (NBT reduction); assay type: cell-based; settings: 72 h culture, NBT reduction at 540 nm
Procedure: Progression of promyelocytic leukemia can be abrogated by their differentiation. […] In order to estimate the differentiating ability of compound-40, HL-60 promyelocytic leukemia cell line was used as an in vitro model of the disease. HL-60 cells were cultured for 72 h as either control or under treatment as mentioned. After 72 h of culture, cells were exposed to nitro blue tetrazolium (NBT) solution containing phorbol myristate acetate (PMA) for 1 h at 37° C. Differentiated cells have increased oxidative burst potential which reduces NBT. Levels of reduced NBT were measured at 540 nm absorption.

hRXR α, β, or γ = test: Transactivation assay (RARE-Luc dual luciferase reporter in HEK-293 cells), activity relative to LG268; assay type: cell-based, human; settings: compound at 300 nM, 24 h; luciferase activity expressed relative to LG268
Method in brief: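 HEK-293 cells co-transfected with hRXR α, β or γ expression vector, RARE-firefly luciferase and renilla luciferase; 24 h later treated with agonist (100 nM, 300 nM, 1 uM) for 24 h. Firefly signal normalized to renilla; activity expressed relative to the RXR agonist LG268.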

| Compound | HL-60 cells differentiation [1] | Activity at 300 nM (hRXR α, β, or γ) |
| --- | --- | --- |
| CC1=C(/C=C/C(C)=C/C=C/C(C)=C/C(=O)O)C(C)(C)CCC1 [ATRA, all transretinoic acid, reference compound] | induced differentiation | – |
| CC1(C)CCC(C)(C)c2sc(N(C(=O)C3CCC3)c3ccc(C(=O)O)cn3)nc21 [Compound 84, 6-[(cyclobutylcarbonyl) (4,4,7,7-tetramethyl-4,5,6,7-tetrahydro-1,3-benzothiazol-2-yl)amino]pyridine-3-carboxylic acid] | – | ** (>0.3 and <0.4) |
| CC(=O)N(c1ccc(C(=O)O)cn1)c1nc2c(s1)C(C)(C)CCC2(C)C [Compound 85, 6-[acetyl(4,4,7,7-tetramethyl-4,5,6,7-tetrahydro-1,3-benzothiazol-2-yl)amino]pyridine-3-carboxylic acid] | – | ** (>0.3 and <0.4) |
| CC1(C)CC(O)C(C)(C)c2nc(N(CC3CC3)c3ccc(C(=O)O)cn3)sc21 (centres unmarked) [Compound 86, 6-[(cyclopropylmethyl) (5-hydroxy-4,4,7,7-tetramethyl-4,5,6,7-tetrahydro-1,3-benzothiazol-2-yl)amino]pyridine-3-carboxylic acid] | – | ***** (>0.6) |
| COC1CC(C)(C)c2sc(N(CC3CC3)c3ccc(C(=O)O)cn3)nc2C1(C)C (centres unmarked) [Compound 87, 6-[(cyclopropylmethyl) (5-methoxy-4,4,7,7-tetramethyl-4,5,6,7-tetrahydro-1,3-benzothiazol-2-yl)amino]pyridine-3-carboxylic acid] | – | ***** (>0.6) |
| CC(C)CN(c1ccc(C(=O)O)cc1)c1nc2c(s1)C(C)(C)CC(C)(O)C2(C)C (centres unmarked) [Compound 88, 4-[(5-hydroxy-4,4,5,7,7-pentamethyl-4,5,6,7-tetrahydro-1,3-benzothiazol-2-yl) (2-methylpropyl)amino]benzoic acid] | – | ** (>0.3 and <0.4) |
| CC(C)CN(c1ccc(C(=O)O)cc1)c1nc2c(s1)C(C)(C)C/C(=N/O)C2(C)C [Compound 89, 4-{[(5Z)-5-(hydroxyimino)-4,4,7,7-tetramethyl-4,5,6,7-tetrahydro-1,3-benzothiazol-2-yl](2-methylpropyl)amino}benzoic acid] | – | ** (>0.3 and <0.4) |
| CC(C)CN(c1ccc(C(=O)O)cc1)c1nc2c(s1)C(C)(C)CC(NCc1ccccc1)C2(C)C (centres unmarked) [Compound 90, 4-{[5-(benzylamino)-4,4,7,7-tetramethyl-4,5,6,7-tetrahydro-1,3-benzothiazol-2-yl](2-methylpropyl)amino}benzoic acid] | – | ** (>0.3 and <0.4) |
| Cc1c(N(CC(C)C)c2ccc(C(=O)O)c(O)c2)sc2c1C(C)(C)CCC2(C)C [Compound 91, 2-hydroxy-4-[(2-methylpropyl) (3,4,4,7,7-pentamethyl-4,5,6,7-tetrahydro-1-benzothiophen-2-yl)amino]benzoic acid] | – | ***** (>0.6) |
| CC1(C)CCC(C)(C)c2sc(Nc3ccc(C(=O)O)cc3O)nc21 [Compound 92, 3-hydroxy-4-[(4,4,7,7-tetramethyl-4,5,6,7-tetrahydro-1,3-benzothiazol-2-yl)amino]benzoic acid] | – | * (<0.3) |
| CC1(C)CCC(C)(C)c2sc(C(=O)c3ccc(C(=O)O)nc3)nc21 [Compound 93, 5-[(4,4,7,7-tetramethyl-4,5,6,7-tetrahydro-1,3-benzothiazol-2-yl)carbonyl]pyridine-2-carboxylic acid] | – | * (<0.3) |
| C=C(c1ccc(C(=O)O)nc1)c1nc2c(s1)C(C)(C)CCC2(C)C [Compound 94, 5-[1-(4,4,7,7-tetramethyl-4,5,6,7-tetrahydro-1,3-benzothiazol-2-yl)ethenyl]pyridine-2-carboxylic acid] | – | ** (>0.3 and <0.4) |
| CC1(C)CCC(C)(C)c2sc(C(=O)c3ccc(C(=O)O)cn3)nc21 [Compound 95, 6-[(4,4,7,7-tetramethyl-4,5,6,7-tetrahydro-1,3-benzothiazol-2-yl)carbonyl]pyridine-3-carboxylic acid] | – | ** (>0.3 and <0.4) |
| CC1(C)CCC(C)(C)c2sc(C(C)(O)c3ccc(C(=O)O)cn3)nc21 (centres unmarked) [Compound 96, 6-[1-hydroxy-1-(4,4,7,7-tetramethyl-4,5,6,7-tetrahydro-1,3-benzothiazol-2-yl)ethyl]pyridine-3-carboxylic acid] | – | ** (>0.3 and <0.4) |
| C=C(c1ccc(C(=O)O)cc1)c1nc2c(s1)C(C)(C)CCC2(C)C [Compound 97, 4-[1-(4,4,7,7-tetramethyl-4,5,6,7-tetrahydro-1,3-benzothiazol-2-yl)ethenyl]benzoic acid] | – | ** (>0.3 and <0.4) |
| CC1(C)CCC(C)(C)c2sc(C3(c4ccc(C(=O)O)cc4)CC3)nc21 [Compound 98, 4-[1-(4,4,7,7-tetramethyl-4,5,6,7-tetrahydro-1,3-benzothiazol-2-yl)cyclopropyl]benzoic acid] | – | **** (>0.5 to <0.6) |
| CC1(C)CCC(C)(C)c2sc(N(c3ccc(C(=O)O)cn3)C3CCC3)nc21 [Compound 99, 6-[cyclobutyl(4,4,7,7-tetramethyl-4,5,6,7-tetrahydro-1,3-benzothiazol-2-yl)amino]pyridine-3-carboxylic acid] | – | ***** (>0.6) |
| CC1(C)CCC(C)(C)c2sc(N(c3ccccc3)c3ccc(C(=O)O)cc3)nc21 [Compound 100, 4-[phenyl(4,4,7,7-tetramethyl-4,5,6,7-tetrahydro-1,3-benzothiazol-2-yl)amino]benzoic acid] | – | ***** (>0.6) |
| CC1(C)CCC(C)(C)c2sc(N(c3ccc(C(=O)O)cc3)c3ccccn3)nc21 [Compound 101, 4-[pyridin-2-yl(4,4,7,7-tetramethyl-4,5,6,7-tetrahydro-1,3-benzothiazol-2-yl)amino]benzoic acid] | – | *** (>0.4 and <0.5) |
| Cc1c(N(c2ccccc2)c2ccc(C(=O)O)cc2)sc2c1C(C)(C)CCC2(C)C [Compound 102, 4-[(3,4,4,7,7-pentamethyl-4,5,6,7-tetrahydro-1-benzothiophen-2-yl) (phenyl)amino]benzoic acid] | – | ***** (>0.6) |
| Cc1c(N(c2ccc(C(=O)O)cc2)c2ccccn2)sc2c1C(C)(C)CCC2(C)C [Compound 103, 4-[(3,4,4,7,7-pentamethyl-4,5,6,7-tetrahydro-1-benzothiophen-2-yl) (pyridin-2-yl)amino]benzoic acid] | – | ***** (>0.6) |
| Cc1c(N(Cc2ccccn2)c2ccc(C(=O)O)cc2)sc2c1C(C)(C)CCC2(C)C [Compound 104, 4-[(3,4,4,7,7-pentamethyl-4,5,6,7-tetrahydro-1-benzothiophen-2-yl) (pyridin-2-ylmethyl)amino]benzoic acid] | – | * (<0.3) |
| CC1(C)CCC(C)(C)c2sc(N(CC3CC3)c3ccc(CC(=O)O)cc3)nc21 [Compound 105, {4-[(cyclopropylmethyl) (4,4,7,7-tetramethyl-4,5,6,7-tetrahydro-1,3-benzothiazol-2-yl)amino]phenyl}acetic acid] | – | ***** (>0.6) |
| CC1(C)CCC(C)(C)c2sc(N(CC3CC3)c3ccc(CCC(=O)O)cc3)nc21 [Compound 106, 3-{4-[(cyclopropylmethyl) (4,4,7,7-tetramethyl-4,5,6,7-tetrahydro-1,3-benzothiazol-2-yl)amino]phenyl}propanoic acid] | – | ***** (>0.6) |
| CC1(C)CCC(C)(C)c2sc(N(CC3CC3)c3ccc(/C=C/C(=O)O)cc3)nc21 [Compound 107] | – | ***** (>0.6) |
| CC1(C)CCC(C)(C)c2sc(N(CC3CC3)c3ccc(C4CC4C(=O)O)cc3)nc21 (centres unmarked) [Compound 108, 2-{4-[(cyclopropylmethyl) (4,4,7,7-tetramethyl-4,5,6,7-tetrahydro-1,3-benzothiazol-2-yl)amino]phenyl}cyclopropanecarboxylic acid] | – | ***** (>0.6) |
